Results reported in a melting point compilation (Tetko et al.; mined from patent text by program, amines drawn as free bases though some values may be those of a salt).

melting point [°C] | Structure (SMILES)
137 to 138 | COc1cccc2c1NCn1cc(CO)cc1-2
102 to 103 | N#CCc1cn(-c2ccccc2)nc1OCc1ccccc1
114 | Cc1ccnc2ccc(C(=O)c3ccc(Cl)cc3)cc12
87 to 88 | COc1ccc(COC(=O)N[C@@H](Cc2ccccc2)C(=O)O)cc1
63 to 65 | CCOC(=O)C1(C(=O)NCc2ccccc2)CC(=O)N(Cc2ccccc2)C1 (stereo not given)
175 to 176 | CC1(C)OC(c2ccc(S(C)(=O)=O)cc2F)=C(c2ccccc2)C1=O
117 to 120 | CCc1scc2c1CN(S(=O)(=O)c1ccc(C)cc1)C2
201 to 202 | CCOC(=O)c1cc(=O)c2cc3c(=O)cc(C(=O)OCC)oc3cc2[nH]1
64 | CCOC(=O)C1CC(O)CN1C(=O)c1ccc(OC)cc1 (stereo not given)
169 to 171 | CC(C)(C(=O)O)c1oc2cccc-2cc1-c1ccccc1
211 | CCOC(=O)N1CCC2(CC1)C(=O)OC(=O)N2c1ccccc1
87 | CCNC(=O)C(c1ccccc1)c1ccccc1
121 to 124 | CCOC(=O)[C@H](CCc1ccccc1)N[C@@H](Cc1ccccc1)C(=O)NCCc1scnc1C(=O)O
169 to 170 | CC(C)(C)c1ccc(S(=O)(=O)Nc2cc(OCCO)ncn2)cc1
88 to 93 | CC(=O)c1ccc(-c2nccn2C)cc1
122 to 123 | CC(C)=CCOc1ccc(C(=O)C=Cc2ccc(C(F)(F)F)cc2)c(O)c1
140 to 142 | CCOC(=O)C1=C(C)NC(c2cscn2)=NC1c1cccc(OC)c1 (stereo not given)
126 | Cc1nc2n(c(=O)c1CCN1CCC(C(=O)c3ccc(F)cc3)CC1)CCCN2Cc1ccccc1
186 to 187 | O=[N+]([O-])c1ccc(Cl)c(C(=S)Nc2ccc(Oc3ncc(C(F)(F)F)cc3Cl)cc2)c1
230 to 232 | O=C1N(Cc2nccnc2C(F)(F)F)c2ccccc2C12COc1cc3c(cc12)OCCO3 (stereo not given)
146 to 148 | CCOc1ccc(C(=O)N2CCNC2=Nc2c(Cl)cccc2Cl)cc1
184 to 186 | CN1CCOc2cc(O)c(C3(O)C(=O)N(Cc4ccc(C(F)(F)F)o4)c4ccccc43)cc21 (stereo not given)

melting point [°C] | Structure (SMILES)
116 to 118 | O=C(c1ccc(C(F)(F)F)cc1)c1cc(O)c(O)c([N+](=O)[O-])c1
231 to 232 | CCOC(=O)c1ncc2[nH]c3cccc(Oc4ccc([N+](=O)[O-])cc4)c3c2c1COC
244 | Cc1cc(-c2cc(C(F)(F)F)n3ncc(C(=O)Nc4cccc(S(=O)(=O)NC5CC5)c4)c3n2)ccc1Cl
155 to 157 | CC(=O)Nc1ccc(-c2cc3cccc(C(=O)OCCN4CCCCC4)c3o2)cc1
312 to 314 | COc1ccc(-c2c(O)c3ccccc3[nH]c2=O)cc1OC
188 to 192 | O=Cc1cc(O)c(O)c(C(F)(F)F)c1
117 to 119 | CCOC(=O)Cc1ccc(CC2(CNS(=O)(=O)c3ccc(Cl)cc3)CCCC2)cc1
103 to 106 | COc1cc(C)c(C(=O)c2c(OC)cncc2C(F)(F)F)c(OC)c1OC
176 to 178 | Cc1nc(N2CCN(Cc3ccc(C#N)cc3)C2=O)sc1C(=O)NCc1ccccc1
60 to 80 | Cc1ccccc1C=CCC(CCC(=O)O)(C(=O)C=Cc1ccc(Cl)cc1)c1ccccc1 (stereo not given)
166 | COCc1ccc(C2(O)CCN(CC(O)c3cc(C)c(O)cc3C)CC2)cc1 (stereo not given)
218 to 224 | Cc1ccc(C=C2NC(=O)N(c3cc(F)ccc3F)C2=O)cc1
121 | CCOC(=O)N=c1ccc(C)cn1Cc1cccc(C(F)(F)F)c1
89 to 91 | CCNC(=O)c1c(Cl)cccc1[Si](C)(C)c1ccccc1
214 to 216 | CC(=O)N1c2ccc(O)cc2C(C)=CC1(C)C
95 to 98 | CCC(C)(C)OC(=O)NC(C)(Cc1c[nH]c2ccccc12)C(=O)NCCc1cccs1 (stereo not given)
51.5 to 53 | CCN(SN(C)C=Nc1ccc(Cl)cc1C)c1ccccc1
141 to 143 | COC(=O)c1ccccc1S(=O)(=O)NC(=O)Nc1nc(OC)cc(OC(F)(F)F)n1
153 to 154 | CC(c1ccccc1)N1CC(C(C(N)=O)(c2ccccc2)c2ccccc2)C1 (stereo not given)
155 to 157 | COc1cc(-c2cc(C(F)(F)F)nn2-c2ccc(S(C)(=O)=O)c(F)c2)ccc1-c1cscn1
265 to 290 | Oc1c(C(O)C(F)(F)F)cnc2c(-c3cc(-c4ccccc4)cs3)cnn12 (stereo not given)
88.4 to 90 | C=CC(=O)Oc1ccc(-c2cccc(F)c2F)cc1

The next lines start with the molecule.

Structure (SMILES) | melting point [°C]
COc1ccc(Br)cc1-c1nc(N)nc(N)n1 | 294 to 297
O=C(c1ccc([N+](=O)[O-])cc1Cl)N1CCCCc2sccc21 | 131 to 134
O=C1c2ccccc2-n2cnc(-c3noc(CCl)n3)c2[C@@H]2CCCN12 | 205 to 206
C[C@@H](Nc1ccc([N+](=O)[O-])cc1)C(=O)O | 238 to 244
CCCCCCCCOC(=O)c1ccc(OC(=O)c2ccc(C(=O)Oc3ccc(C(=O)OCCCCCCCC)cc3)cc2)cc1 | 108 to 110
Fc1ccc(-c2[nH]c(=S)sc2CCCl)cc1 | 176
Oc1c(S)cc(I)cc1I | 178 to 180
CN1CCC(c2n[nH]c3cc(F)ccc23)CC1 | 217 to 220
CCCOC(=O)CS(=O)(=O)C=C1SC=CS1 | 141 to 142
c1ccc2c(c1)C1CCC2c2c(OCC3CO3)cccc21 (stereo not given) | 127 to 130
O=C(O)CCCCNS(=O)(=O)c1ccc(N2CCCCCCC2)cc1 | 149 to 150
COc1ccc(S(=O)(=O)C2(C(=O)O)CCN(Cc3ccc(-c4ccccc4)cc3)CC2)cc1 | 168
O=C(NCc1ccccn1)c1ccc(C=Cc2ccccc2OCc2ccccc2)cc1 | 123 to 127
O=C(c1ccc2n1Cc1ccccc1N(S(=O)(=O)c1ccc(Br)cc1)C2)C(Cl)(Cl)Cl | 182 to 183
C=CCN1Cc2cncn2C(c2ccc(C#N)cc2)C1=O (stereo not given) | 107 to 109
COC(=S)Nc1ccc(OCc2nc3ccccc3s2)cc1 | 160 to 162
COC(=O)c1nc2nc(COC(C)=O)cc(Cl)n2n1 | 120
COc1ccc(N(c2ccc(C=Cc3ccc4ccc5cccc6ccc3c4c56)cc2)c2ccc(OC)cc2)cc1 | 160
O=C(O)C1(CC#CBr)CCCCC1 | 98

Structure (SMILES) | melting point [°C]
NC1=CN(Cc2ccc(Cl)cc2Cl)CN=C1 | 104 to 105
CC1CC2C3=C(C(O)CC2(C)C1C(=O)CO)C1(C)C=CC(=O)C=C1C(F)C3 (stereo not given) | 173
Cc1nn(-c2ccccn2)c2nc3ccccc3c(Cl)c12 | 157 to 159
C=C(CC(Cl)(Cl)Cl)c1nc(Cl)ccc1Cl | 71 to 74
CC(CCCO)C1CCC2C3C(O)CC4CC(O)CCC4(C)C3CC(O)C12C (stereo not given) | 226 to 227
Cc1cc(C)c(CN2CCN(C)CC2)c(C)c1C=O | 90
CC(C)(Cl)C(CNC(=O)c1ccc([N+](=O)[O-])o1)N=O (stereo not given) | 110 to 112
Nc1nc(-c2ccc(Cl)cc2)c(CCC(=O)O)s1 | 116 to 118
COCOc1cc(Cl)ccc1-c1cc(-c2cccc(C(=O)NCCCn3ccnc3)c2)c(C#N)c(NC(=O)c2ccccc2OC)n1 | 100 to 101
O=C(O)c1c(-c2ccc(Cl)cc2)ccnc1Br | 204 to 208
CSc1nc(Cl)ncc1C | 73 to 76
O=C(CCCCCCNC(=O)c1cn2c3c(cccc13)CCC2)NO | 205 to 206
CC(C)(C(=O)O)C1(c2ccc(Cl)cc2)CCC1 | 95 to 110
COc1cc(OC)nc(OC2C(=O)OCC2(C)C)n1 (stereo not given) | 139 to 142
Nc1nc(N)c(-c2ccc(Cl)cc2Cl)c(C(=O)O)n1 | 221
CC[Si](C#CC1(COCc2ccccc2)OC(n2ccc(=O)[nH]c2=O)C(O)C1OCc1ccccc1)(CC)CC (stereo not given) | 119 to 120
CCCc1c(CSc2nnc(NC(=O)CCC(=O)OCC)s2)ccc(C(C)=O)c1O | 166
CCCCOC(=O)C(C#N)=C1Nc2ccccc2O1 | 116 to 119
Fc1cccc(Cl)c1CSc1nc2cnccc2[nH]1 | 224 to 226

Structure (SMILES) | melting point [°C]
CCN(CC)c1ccc2c(c1)OC(=O)N(c1ccccc1)C2(c1ccc(N(C)C)cc1)c1ccc(N(C)C)cc1 | 206 to 207
CCc1nc2c(N)nc3cc(OCCNC(=O)NC(C)C)ccc3c2n1CC1CCOCC1 | 223 to 225
CN(C)Cc1ccc(CSCCNC(=C[N+](=O)[O-])NCc2ccc3c(c2)OCO3)o1 | 98 to 120
CCCn1nc(C)c2c1C1=NC(C)CN1C(C)=N2 (stereo not given) | 85 to 90
CC1(C)OC(=S)Nc2ccc(-c3ccc(C#N)s3)cc21 | 242 to 244
COc1ccc2c(c1)C=C(/C=C/C=C/C=C/C(=O)O)C(C)(C)O2 | 154 to 156
O=S(=O)(c1ccc(Cl)cc1)C(c1ccc(CN2CCOCC2)cn1)c1cc(F)ccc1F (stereo not given) | 120 to 121
CSC(=NCCSCc1csc(NC(=N)N)n1)NC#N | 127 to 134
CON(C)Cc1nc2c(N)nc(C)c(C)c2n1CC(C)C | 132 to 134
CCC(=O)Nc1ccc(C(=O)[C@H]2C[C@H]2C(=O)O)cc1 (relative stereo) | 182 to 183
CN(C(=O)c1nnc2ccccc2c1O)c1ccccn1 | 237 to 239
Cc1c(C(=O)O)oc2ccccc2c1=O | 192 to 193
COc1cccc(Nc2n[nH]c(N)c2C#N)c1 | 177 to 180
CS(=O)(=O)Nc1ccc(C(=O)CC(=O)C2CC2)c(Cl)c1 | 120 to 122
CC(C)[C@@H]1C[C@@H]([C@H](C[C@H](C(=O)N2C(=O)OC[C@@H]2Cc2ccccc2)C(C)C)N=[N+]=[N-])OC1=O | 102 to 103
CC=CC=CCOC(=O)C1=C(C)NC(C)=C(C(=O)OC(C)(C)C)C1c1cccc([N+](=O)[O-])c1 (stereo not given) | 152 to 154
COc1ccc(Cl)c(Cc2c(Cl)nc(N3CCOCC3)nc2NS(=O)(=O)c2ccc(C(C)(C)C)cc2)c1 | 159 to 162
CC(=O)OC1N=C(c2ccccc2)c2cc(Cl)ccc2-n2c1cnc2C (stereo not given) | 200 to 201
